Data: patent publication US4322348A, “Maytansinoids” (Takeda Chemical Industries, Ltd., priority 1979, dated 1982)
Values after ≈ are worked out from the molar mass of the structure shown.

Assays:
[1] = solubility; format: physicochemical
[2] = tested on: Bacillus cereus; experiment: growth inhibition, paper disc method, trypticase soy agar; format: cell-based; details: 8 mm disc, 0.02 ml of a 300 μg/ml solution
Procedure: (§1) The growth inhibitory activity of the compounds against the test organisms is assayed by the paper disc method using a trypticase soy agar (manufactured by Baltimore Biologicals Laboratories, U.S.A.) as the assay medium. That is, the growth inhibitory activity is determined on the plate medium containing the following test organisms using a paper disc (manufactured by Toyo Seisakusho Co. Ltd., thin type, 8 mm in diameter) impregnated with 0.02 ml of a 300 μg/ml solution of C-15003PND-1, PND-2, PND-3 or PND-4.

[3] = tested on: Bacillus subtillis; experiment: as above; format: cell-based; details: 8 mm disc, 0.02 ml of a 300 μg/ml solution
Procedure: as §1

[4] = tested on: Escherichia coli; experiment: as above; format: cell-based; details: 8 mm disc, 0.02 ml of a 300 μg/ml solution
Procedure: as §1

[5] = tested on: Klebsiella pneumoniae; experiment: as above; format: cell-based; details: 8 mm disc, 0.02 ml of a 300 μg/ml solution
Procedure: as §1

[6] = tested on: Mycobacterium avium; experiment: as above; format: cell-based; details: 8 mm disc, 0.02 ml of a 300 μg/ml solution
Procedure: as §1

[7] = tested on: Proteus mirabilis; experiment: as above; format: cell-based; details: 8 mm disc, 0.02 ml of a 300 μg/ml solution
Procedure: as §1

[8] = tested on: Proteus vulgaris; experiment: as above; format: cell-based; details: 8 mm disc, 0.02 ml of a 300 μg/ml solution
Procedure: as §1

[9] = tested on: Pseudomonas aeruginosa; experiment: as above; format: cell-based; details: 8 mm disc, 0.02 ml of a 300 μg/ml solution
Procedure: as §1

[10] = tested on: Serratia marcescens; experiment: as above; format: cell-based; details: 8 mm disc, 0.02 ml of a 300 μg/ml solution
Procedure: as §1

[11] = tested on: Staphylococcus aureus; experiment: as above; format: cell-based; details: 8 mm disc, 0.02 ml of a 300 μg/ml solution
Procedure: as §1

[12] = tested on: Hamigera avellanea IFO 7721; experiment: growth inhibition, paper disc method, agar plate; format: cell-based; details: IFO7721, 8 mm disc, 0.02 ml of a 100 μg/ml solution, pH 7.0, read-out: inhibitory zones
Procedure: Also, the compounds are assayed by the paper disc method using an agar plate [3.5 g of disodiumhydrogen phosphate, 0.5 g of potassium dihydrogen phosphate, 5 g of yeast extract (manufactured by Difco Co.), 10 g of glucose, 15 g of agar, 1000 ml of distilled water, pH 7.0] as a medium for assay and Hamigera avellanea IFO 7721 as a test organism. Thus, the growth inhibitory activity is determined on the plate medium containing the test organism using a paper disc (Toyo Seisakusho Co. Japan, thin type, 8 mm in diameter) impregnated with 0.02 ml of a 100 μg/ml solution of C-15003PND-1, PND-2, PND-3 or PND-4. As a result, C-15003PND-1, PND-2, PND-3 and PND-4 show inhibitory zones of 28 mm, 30 mm, 34 mm and 36 mm, respectively.

[13] = tested on: Tetrahymena pyriformis W; experiment: growth inhibition, liquid dilution method; format: cell-based; details: 28° C., 44 to 48 hours, pH 7.0, read-out: concentration at which the growth of the test organism is inhibited
Procedure: Further, the growth inhibitory activity of these antibiotics is determined by the liquid dilution method using a medium [20 g of proteose peptone (Difco Co.), 1 g of yeast extract, 2 g of glucose, 1000 ml of distilled water, 10 ml of 1 M phosphate buffer pH 7.0] and Tetrahymena pyriformis W as a test organism with incubation at 28° C. for 44 to 48 hours. As a result, the growth of the above test organism is found to be inhibited at a concentration of 8 μg/ml of C-15003PND-1, 4 μg/ml of C-15003PND-2, 2 μg/ml of C-15003PND-3 and 1 μg/ml of C-15003PND-4.

[14] = tested on: tumor cells leukemia P388; experiment: antitumor activity, therapeutic effect on leukemia P388 in mice; format: in vivo; details: 1×10^6 cells/mouse i.p.; compound i.p. for 9 consecutive days
Procedure: The therapeutic effects of C-15003PND-1, PND-2, PND-3 and PND-4 on tumor cells leukemia P388 (1×10^6 cells/mouse, transplanted intraperitoneally) are determined by administering the compound intraperitoneally for 9 consecutive days.

[15] = acute toxicity test in mice; format: in vivo; details: intraperitoneal
[16] = in petroleum ether, n-hexane, water
[17] = in chloroform, ethyl acetate, acetone, ethanol, methanol, pyridine, tetrahydrofuran, dimethyl sulfoxide

SMILES | Solubility ([1]; in chloroform, ethyl acetate, acetone, ethanol, pyridine, tetrahydrofuran, dimethyl sulfoxide) | Solubility [1, 16] | growth inhibitory activity [2] | growth inhibitory activity [3] | growth inhibitory activity [4] | growth inhibitory activity [5] | growth inhibitory activity [6] | growth inhibitory activity [7] | growth inhibitory activity [8] | growth inhibitory activity [9] | growth inhibitory activity [10] | growth inhibitory activity [11] | zone of inhibition at 100 µg/mL [12] [mm] | MIC [13] [µg/mL] | life-prolonging effect [14] | estimated LD0 [15] [mg/kg] | estimated LD100 [15] [mg/kg] | Solubility [1, 17]
COc1cc2cc(c1Cl)NC(=O)CC(O)C1(C)OC1C(C)C1CC(O)(NC(=O)O1)C(OC)C=CC=C(C)C2 (stereo not shown) [C-15003PND-0] | Soluble | Insoluble | – | – | – | – | – | – | – | – | – | – | – | – | – | – | – | –
COc1cc2cc(c1Cl)NC(=O)CC(OC(C)=O)C1(C)OC1C(C)C1CC(O)(NC(=O)O1)C(OC)C=CC=C(C)C2 (stereo not shown) [C-15003PND-1] | – | Insoluble | do not show any activity | do not show any activity | do not show any activity | do not show any activity | do not show any activity | do not show any activity | do not show any activity | do not show any activity | do not show any activity | do not show any activity | 28 | 8 (≈ 13.5 µM) | a life-prolonging effect | 0.313 | 2.5 | Soluble
CCC(=O)OC1CC(=O)Nc2cc(cc(OC)c2Cl)CC(C)=CC=CC(OC)C2(O)CC(OC(=O)N2)C(C)C2OC12C (stereo not shown) [C-15003PND-2] | – | Insoluble | do not show any activity | do not show any activity | do not show any activity | do not show any activity | do not show any activity | do not show any activity | do not show any activity | do not show any activity | do not show any activity | do not show any activity | 30 | 4 (≈ 6.59 µM) | a life-prolonging effect | 0.313 | 2.5 | Soluble
COc1cc2cc(c1Cl)NC(=O)CC(OC(=O)C(C)C)C1(C)OC1C(C)C1CC(O)(NC(=O)O1)C(OC)C=CC=C(C)C2 (stereo not shown) [C-15003PND-3] | – | Insoluble | do not show any activity | do not show any activity | do not show any activity | do not show any activity | do not show any activity | do not show any activity | do not show any activity | do not show any activity | do not show any activity | do not show any activity | 34 | 2 (≈ 3.22 µM) | a life-prolonging effect | 0.313 | 2.5 | Soluble
COc1cc2cc(c1Cl)NC(=O)CC(OC(=O)CC(C)C)C1(C)OC1C(C)C1CC(O)(NC(=O)O1)C(OC)C=CC=C(C)C2 (stereo not shown) [C-15003PND-4] | – | Insoluble | do not show any activity | do not show any activity | do not show any activity | do not show any activity | do not show any activity | do not show any activity | do not show any activity | do not show any activity | do not show any activity | do not show any activity | 36 | 1 (≈ 1.57 µM) | a life-prolonging effect | 0.313 | 2.5 | Soluble
